Source: patent publication US8574563B2 (Bristol-Myers Squibb Company, priority 2006, dated 2013)
Like-named read-outs stand apart in the source and are kept apart here.

Tested on: HCV 1b-377-neo replicon cells
Assay: HCV replicon assay, HCV 1b-377-neo replicon cells (1b FRET)
Format: cell-based, Hepatitis C virus genotype 1b
Conditions: HCV 1b-377-neo replicon cells, HCV 1b genotype, read-out: EC50 range against HCV 1b (Table 2, Range)
Procedure, shortened: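 FRET-based replicon assay in HCV 1b-377-neo cells, including a comparison line carrying the NS5A Y2065H mutation that confers resistance to a reference compound.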

Row | SMILES | EC50 (Hepatitis C virus) | EC50
1 | CCN(CC)[C@@H](C(=O)N1CCC[C@H]1c1ncc(-c2ccc(-c3ccc(-c4cnc([C@@H]5CCCN5C(=O)CNC(=O)OC)[nH]4)cc3)cc2)[nH]1)c1ccccc1 [Example M50, methyl (2-((2S)-2-(5-(4′-(2-((2S)-1-((2R)-2-(diethylamino)-2-phenylacetyl)-2-pyrrolidinyl)-1H-imidazol-5-yl)-4-biphenylyl)-1H-imidazol-2-yl)-1-pyrrolidinyl)-2-oxoethyl)carbamate] | 1 to 99 nM | 
2 | CCN(CC)[C@@H](C(=O)N1CCC[C@H]1c1ncc(-c2ccc(-c3ccc(-c4cnc([C@@H]5CCCN5C(=O)N5CCOCC5)[nH]4)cc3)cc2)[nH]1)c1ccccc1 [Example M51, (1R)-N,N-diethyl-2-((2S)-2-(5-(4′-(2-((2S)-1-(4-morpholinylcarbonyl)-2-pyrrolidinyl)-1H-imidazol-5-yl)-4-biphenylyl)-1H-imidazol-2-yl)-1-pyrrolidinyl)-2-oxo-1-phenylethanamine] | 1 to 99 nM | 
3 | CCN(CC)[C@@H](C(=O)N1CCC[C@H]1c1ncc(-c2ccc(-c3ccc(-c4cnc([C@@H]5CCCN5C(=O)[C@@H](c5ccccc5)N(C)C)[nH]4)cc3)cc2)[nH]1)c1ccccc1 [Example M52, (1R)-2-((2S)-2-(5-(4′-(2-((2S)-1-((2R)-2-(diethylamino)-2-phenylacetyl)-2-pyrrolidinyl)-1H-imidazol-5-yl)-4-biphenylyl)-1H-imidazol-2-yl)-1-pyrrolidinyl)-N,N-dimethyl-2-oxo-1-phenylethanamine] | 1 to 99 nM | 
4 | CCN(CC)[C@@H](C(=O)N1CCC[C@H]1c1ncc(-c2ccc(-c3ccc(-c4cnc([C@@H]5CCCN5C(=O)[C@@H](C)NC(=O)OC)[nH]4)cc3)cc2)[nH]1)c1ccccc1 [Example M53, methyl ((1R)-2-((2S)-2-(5-(4′-(2-((2S)-1-((2R)-2-(diethylamino)-2-phenylacetyl)-2-pyrrolidinyl)-1H-imidazol-5-yl)-4-biphenylyl)-1H-imidazol-2-yl)-1-pyrrolidinyl)-1-methyl-2-oxoethyl)carbamate] | 1 to 99 nM | 
5 | CC[C@@H](NC(=O)OC)C(=O)N1CCC[C@H]1c1ncc(-c2ccc(-c3ccc(-c4cnc([C@@H]5CCCN5C(=O)[C@@H](c5ccccc5)N(CC)CC)[nH]4)cc3)cc2)[nH]1 [Example M54, methyl ((1R)-1-(((2S)-2-(5-(4′-(2-((2S)-1-((2R)-2-(diethylamino)-2-phenylacetyl)-2-pyrrolidinyl)-1H-imidazol-5-yl)-4-biphenylyl)-1H-imidazol-2-yl)-1 pyrrolidinyl)carbonyl)propyl) carbamate] |  | 1 to 99 nM
6 | CC[C@H](NC(=O)OC)C(=O)N1CCC[C@H]1c1ncc(-c2ccc(-c3ccc(-c4cnc([C@@H]5CCCN5C(=O)[C@@H](c5ccccc5)N(CC)CC)[nH]4)cc3)cc2)[nH]1 [Example M55, methyl ((1S)-1-(((2S)-2-(5-(4′-(2-((2S)-1-((2R)-2-(diethylamino)-2-phenylacetyl)-2-pyrrolidinyl)-1H-imidazol-5-yl)-4-biphenylyl)-1H-imidazol-2-yl)-1-pyrrolidinyl)carbonyl)propyl)carbamate] | 1 to 99 nM | 
7 | CCN(CC)[C@@H](C(=O)N1CCC[C@H]1c1ncc(-c2ccc(-c3ccc(-c4cnc([C@@H]5CCCN5C(=O)[C@H](NC(=O)OC)C5CC5)[nH]4)cc3)cc2)[nH]1)c1ccccc1 [Example M56, methyl ((1R)-1-cyclopropyl-2-((2S)-2-(5-(4′-(2-((2S)-1-((2R)-2-(diethylamino)-2-phenylacetyl)-2-pyrrolidinyl)-1H-imidazol-5-yl)-4-biphenylyl)-1H-imidazol-2-yl)-1-pyrrolidinyl)-2-oxoethyl)carbamate] | 1 to 99 nM | 
8 | CCN(CC)[C@@H](C(=O)N1CCC[C@H]1c1ncc(-c2ccc(-c3ccc(-c4cnc([C@@H]5CCCN5C(=O)[C@@H](NC(=O)OC)C5CC5)[nH]4)cc3)cc2)[nH]1)c1ccccc1 [Example M57, methyl ((1S)-1-cyclopropyl-2-((2S)-2-(5-(4′-(2-((2S)-1-((2R)-2-(diethylamino)-2-phenylacetyl)-2-pyrrolidinyl)-1H-imidazol-5-yl)-4-biphenylyl)-1H-imidazol-2-yl)-1-pyrrolidinyl)-2-oxoethyl)carbamate] | 1 to 99 nM | 
9 | CCN(CC)[C@@H](C(=O)N1CCC[C@H]1c1ncc(-c2ccc(-c3ccc(-c4cnc([C@@H]5CCCN5C(=O)[C@@H](NC(=O)OC)C(C)C)[nH]4)cc3)cc2)[nH]1)c1ccccc1 [Example M58, methyl ((1S)-1-(((2S)-2-(5-(4′-(2-((2S)-1-((2R)-2-(diethylamino)-2-phenylacetyl)-2-pyrrolidinyl)-1H-imidazol-5-yl)-4-biphenylyl)-1H-imidazol-2-yl)-1-pyrrolidinyl)carbonyl)-2-methylpropyl)carbamate] | 1 to 99 nM | 
10 | CCN(CC)[C@@H](C(=O)N1CCC[C@H]1c1ncc(-c2ccc(-c3ccc(-c4cnc([C@@H]5CCCN5C(=O)[C@@H](NC(=O)OC)C(C)(C)C)[nH]4)cc3)cc2)[nH]1)c1ccccc1 [Example M59, methyl ((1S)-1-(((2S)-2-(5-(4′-(2-((2S)-1-((2R)-2-(diethylamino)-2-phenylacetyl)-2-pyrrolidinyl)-1H-imidazol-5-yl)-4-biphenylyl)-1H-imidazol-2-yl)-1-pyrrolidinyl)carbonyl)-2,2-dimethylpropyl)carbamate] | 1 to 99 nM | 
11 | C=CC[C@H](NC(=O)OC)C(=O)N1CCC[C@H]1c1ncc(-c2ccc(-c3ccc(-c4cnc([C@@H]5CCCN5C(=O)[C@@H](c5ccccc5)N(CC)CC)[nH]4)cc3)cc2)[nH]1 [Example M60, methyl ((1S)-1-(((2S)-2-(5-(4′-(2-((2S)-1-((2R)-2-(diethylamino)-2-phenylacetyl)-2-pyrrolidinyl)-1H-imidazol-5-yl)-4-biphenylyl)-1H-imidazol-2-yl)-1-pyrrolidinyl)carbonyl)-3-buten-1-yl)carbamate] | 1 to 99 nM | 
12 | CCN(CC)[C@@H](C(=O)N1CCC[C@H]1c1ncc(-c2ccc(-c3ccc(-c4cnc([C@@H]5CCCN5C(=O)[C@H](COC)NC(=O)OC)[nH]4)cc3)cc2)[nH]1)c1ccccc1 [Example M61, methyl ((1S)-2-((2S)-2-(5-(4′-(2-((2S)-1-((2R)-2-(diethylamino)-2-phenylacetyl)-2-pyrrolidinyl)-1H-imidazol-5-yl)-4-biphenylyl)-1H-imidazol-2-yl)-1-pyrrolidinyl)-1-(methoxymethyl)-2-oxoethyl)carbamate] | 1 to 99 nM | 
13 | CCC[C@H](NC(=O)OC)C(=O)N1CCC[C@H]1c1ncc(-c2ccc(-c3ccc(-c4cnc([C@@H]5CCCN5C(=O)[C@@H](c5ccccc5)N(CC)CC)[nH]4)cc3)cc2)[nH]1 [Example M62, methyl ((1S)-1-(((2S)-2-(5-(4′-(2-((2S)-1-((2R)-2-(diethylamino)-2-phenylacetyl)-2-pyrrolidinyl)-1H-imidazol-5-yl)-4-biphenylyl)-1H-imidazol-2-yl)-1-pyrrolidinyl)carbonyl)butyl)carbamate] | 1 to 99 nM | 
14 | CCN(CC)[C@H](C)C(=O)N1CCC[C@H]1c1ncc(-c2ccc(-c3ccc(-c4cnc([C@@H]5CCCN5C(=O)[C@H](NC(=O)OC)c5ccccc5)[nH]4)cc3)cc2)[nH]1 [Example M63, methyl ((1R)-2-((2S)-2-(5-(4′-(2-((2S)-1-(N,N-diethyl-D-alanyl)-2-pyrrolidinyl)-1H-imidazol-5-yl)-4-biphenylyl)-1H-imidazol-2-yl)-1-pyrrolidinyl)-2-oxo-1-phenylethyl)carbamate] | 1 to 99 nM | 
15 | CCCN(CCC)[C@H](C)C(=O)N1CCC[C@H]1c1ncc(-c2ccc(-c3ccc(-c4cnc([C@@H]5CCCN5C(=O)[C@H](NC(=O)OC)c5ccccc5)[nH]4)cc3)cc2)[nH]1 [Example M64, methyl ((1R)-2-((2S)-2-(5-(4′-(2-((2S)-1-(N,N-dipropyl-D-alanyl)-2-pyrrolidinyl)-1H-imidazol-5-yl)-4-biphenylyl)-1H-imidazol-2-yl)-1-pyrrolidinyl)-2-oxo-1-phenylethyl)carbamate] | 1 to 99 nM | 
16 | COC(=O)N[C@@H](C(=O)N1CCC[C@H]1c1ncc(-c2ccc(-c3ccc(-c4cnc([C@@H]5CCCN5C(=O)c5cnc[nH]5)[nH]4)cc3)cc2)[nH]1)c1ccccc1 [Example M65, methyl ((1R)-2-((2S)-2-(5-(4′-(2-((2S)-1-(1H-imidazol-5-ylcarbonyl)-2-pyrrolidinyl)-1H-imidazol-5-yl)-4-biphenylyl)-1H-imidazol-2-yl)-1-pyrrolidinyl)-2-oxo-1-phenylethyl)carbamate] | 1 to 99 nM | 
17 | CCN(CC)CCC(NC(=O)OC)C(=O)N1CCC[C@H]1c1ncc(-c2ccc(-c3ccc(-c4cnc([C@@H]5CCCN5C(=O)[C@H](NC(=O)OC)c5ccccc5)[nH]4)cc3)cc2)[nH]1 (stereo partly drawn) [Example M66a, methyl ((1R)-2-((2S)-2-(5-(4′-(2-((2S)-1-(4-(diethylamino)-2-((methoxycarbonyl)amino)butanoyl)-2-pyrrolidinyl)-1H-imidazol-5-yl)-4-biphenylyl)-1H-imidazol-2-yl)-1-pyrrolidinyl)-2-oxo-1-phenylethyl)carbamate] | 100 to 999 nM | 
18 | CC[C@H](C(=O)N1CCC[C@H]1c1ncc(-c2ccc(-c3ccc(-c4cnc([C@@H]5CCCN5C(=O)[C@H](NC(=O)OC)c5ccccc5)[nH]4)cc3)cc2)[nH]1)N(CC)CC [Example M66x, methyl ((1R)-2-((2S)-2-(5-(4′-(2-((2S)-1-((2R)-2-(diethylamino)butanoyl)-2-pyrrolidinyl)-1H-imidazol-5-yl)-4-biphenylyl)-1H-imidazol-2-yl)-1-pyrrolidinyl)-2-oxo-1-phenylethyl)carbamate] | 1 to 99 nM | 
19 | CCN(CC)CCC(NC(=O)OC)C(=O)N1CCC[C@H]1c1ncc(-c2ccc(-c3ccc(-c4cnc([C@@H]5CCCN5C(=O)[C@@H](NC(=O)OC)C(C)C)[nH]4)cc3)cc2)[nH]1 (stereo partly drawn) [Example M67a, methyl ((1S)-1-(((2S)-2-(5-(4′-(2-((2S)-1-(4-(diethylamino)-2-((methoxycarbonyl)amino)butanoyl)-2-pyrrolidinyl)-1H-imidazol-5-yl)-4-biphenylyl)-1H-imidazol-2-yl)-1-pyrrolidinyl)carbonyl)-2-methylpropyl)carbamate] | 100 to 999 nM | 
